This note sets out measurements from US20230364272A1, “THERANOSTIC COMPOUNDS” (NRF ITHEMBA LABS, priority 2020, published 2023).

What all share (assay type): cell-based
Assay [1] relates to cervical (HeLa) cancer cell line. Put plainly: Radioactivity uptake of ^123I radiolabeled ADAM10 inhibitor in HeLa cells. Particulars: 3 mCi (title); for Average counts per min: 1 h incubation; for A(0) per well × Eff corr: decay corrected.
The test system is the same in assay [2]. Described as above. Conditions: for uptake (in words): Table 1 / FIG. 2 experiment. On the procedure:
(§1) In order to test the biological activity of the radiolabeled compound in vitro, two cell lines were chosen as esophageal (WHCO5) and cervical (HeLa) cancer cell lines (using [^123I]Nal as the control) and the radioactivity uptake was measured using a bore-hole or scintillation counter. […] The well plates were incubated for one hour in a humidified CO2 incubator at 37° C. The measurements were performed with a ^123I Multi Channel Analyzer, and during the incubation time, a calibration and counting efficiency determination was carried out on the channel.^33
(§2) After the one-hour incubation period, the growth medium was aspirated, leaving the adherent cell monolayers intact and the cell cultures rinsed twice with cold PBS to remove any residual extracellular radioactivity. The cell monolayers were lysed with 1 mL 1M NaOH, and 1 mL of each lysed suspension was transferred to a clean test tube. The data is presented as an average of triplicates and was corrected for ^123I decay using Eff Corr as the correcting factor, which considers the half-life and decay of the radionuclide over a specific time interval.
(§3) […] Data represents an average and standard deviation of 12 replicates using 0.3 μCi of ^123I-SN-311 and 200000 cells.

Assay [3] has as its system esophageal (WHCO5) cancer cell line. Put plainly: Radioactivity uptake of ^123I radiolabeled ADAM10 inhibitor in WHCO5 cells. Particulars: 3 mCi (title); for Average counts per min: 1 h incubation; for A(0) per well × Eff corr: decay corrected.
For assay [4] the test system is unchanged. Described as above. Conditions: for uptake (in words): WHCO5, Table 1 / FIG. 2 experiment. The protocol: as §1, §2, §3
The subject of assay [5] is cervical (HeLa) cancer cell line. Kind of assay: ADAM10 biological activity, EC50 in HeLa cells.
Assay [6] has as its system esophageal (WHCO5) cancer cell line. Kind of assay: ADAM10 biological activity, EC50 in WHCO5 cells.

For the compound `[123I-].[Na+]` [[^123I]NaI, reference compound], the Bq per well in assay [1] (50000 cells) was found to be 148 Bq; in assay [1] (100000 cells), 149 Bq; in assay [1] (150000 cells), 173 Bq; in assay [1] (200000 cells), 161 Bq; in assay [3] (WHCO5, 50000 cells), 297 Bq; in assay [3] (WHCO5, 100000 cells), 308 Bq. For the same compound, the Bq per well in assay [3] (WHCO5, 150000 cells) is recorded as 317 Bq; in assay [3] (WHCO5, 200000 cells), 357 Bq. In addition, the “Average counts per min” value in assay [1] (50000 cells) is 1974 counts per min; in assay [1] (100000 cells), 1991 counts per min; in assay [1] (150000 cells) it was 2308 counts per min; in assay [1] (200000 cells), 2147 counts per min; in assay [3] (WHCO5, 50000 cells), 3968 counts per min; in assay [3] (WHCO5, 100000 cells), 4116 counts per min. In addition, the “Average counts per min” value in assay [3] (WHCO5, 150000 cells) is given as 4239 counts per min; in assay [3] (WHCO5, 200000 cells), 4772 counts per min. The “A(0) per well × Eff corr” value in assay [1] (50000 cells) came to 8857; in assay [1] (100000 cells), 8934; in assay [1] (150000 cells) it was 10355; in assay [1] (200000 cells), 9635; in assay [3] (WHCO5, 50000 cells), 17807; in assay [3] (WHCO5, 100000 cells) it was 18470. The “A(0) per well × Eff corr” value was found to be 19021 in assay [3] (WHCO5, 150000 cells) and 21415 in assay [3] (WHCO5, 200000 cells). Also, the “uptake (in words)” value in assay [2] and in assay [4] was “minimal uptake” throughout.

Consider `CNC(=O)[C@@H](NC(=O)[C@H](CCCc1ccccc1)[C@@H](C)N(O)C=O)C(C)(C)C` [SN-311], for which the “EC50 compared with G1254023X” value in assay [5] and in assay [6] was “fall within the 95% confidence interval of that of G1254023X” throughout.

Turning to `CNC(=O)C(NC(=O)C(CCCc1ccc([123I])cc1)C(C)N(O)C=O)C(C)(C)C` (centres unmarked) [^123I-SN-311], the Bq per well was determined as 455 Bq in assay [1] (50000 cells); 567 Bq in assay [1] (100000 cells); 691 Bq in assay [1] (150000 cells); 864 Bq in assay [1] (200000 cells); 698 Bq in assay [3] (WHCO5, 50000 cells); 988 Bq in assay [3] (WHCO5, 100000 cells). The Bq per well amounted to 1202 Bq in assay [3] (WHCO5, 150000 cells) and 1421 Bq in assay [3] (WHCO5, 200000 cells). The “Average counts per min” value in assay [1] (50000 cells) is given as 6080 counts per min; in assay [1] (100000 cells) it was 7582 counts per min; in assay [1] (150000 cells), 9236 counts per min; in assay [1] (200000 cells), 11555 counts per min; in assay [3] (WHCO5, 50000 cells), 9337 counts per min; in assay [3] (WHCO5, 100000 cells) it was 13207 counts per min. In addition, the “Average counts per min” value in assay [3] (WHCO5, 150000 cells) is given as 16075 counts per min; in assay [3] (WHCO5, 200000 cells), 18996 counts per min. The “A(0) per well × Eff corr” value in assay [1] (50000 cells) was 27284; in assay [1] (100000 cells) it was 34023; in assay [1] (150000 cells), 41445; in assay [1] (200000 cells) it was 51852; in assay [3] (WHCO5, 50000 cells), 41898; in assay [3] (WHCO5, 100000 cells) it was 59265. Further, the “A(0) per well × Eff corr” value came out at 72135 in assay [3] (WHCO5, 150000 cells) and 85240 in assay [3] (WHCO5, 200000 cells). The “uptake of the radiolabeled compound” value in assay [2] (0.3 μCi per well, 200000 cells, average of 12 replicates) came out at 81.76 Bq; in assay [4] (WHCO5, 0.3 μCi per well, 200000 cells, average of 12 replicates), 127.63 Bq. Besides, the “uptake (in words)” value in assay [2] and in assay [4] was “clear uptake” throughout.
